Measurements taken from patent publication US20250346585A1 (Alexion Pharmaceuticals, Inc., priority 2022, published 2025).
pIC50: −log10 of the molar value.

Target: Human complement C1s enzyme (Homo sapiens (Human), UniProt P09871)
Test: Human C1s enzyme assay
Type: biochemical
Conditions: Human C1s enzyme assay of Example 3; read-out: IC50 (Stars)
Outline: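 Purified serum-derived human C1s (1.16 nM final) preincubated 5 min at room temperature with compound in 50 mM Tris, 1 M NaCl, pH 7.5. Z-L-Lys-SBzl thioester substrate and DTNB added (100 μM each, final); A405 read every 30 s for 30 min. IC50 from nonlinear regression of reaction rates against compound concentration.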

Chain of Human complement C1s enzyme (P09871 438-688 limits assumed): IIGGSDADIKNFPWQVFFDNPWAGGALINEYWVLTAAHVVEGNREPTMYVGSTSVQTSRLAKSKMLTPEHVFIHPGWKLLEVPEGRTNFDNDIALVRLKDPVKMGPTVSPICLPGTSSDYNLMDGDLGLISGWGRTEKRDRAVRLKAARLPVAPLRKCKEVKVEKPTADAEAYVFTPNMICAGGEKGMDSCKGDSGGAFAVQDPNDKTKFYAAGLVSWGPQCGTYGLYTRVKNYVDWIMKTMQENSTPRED
Chain of Human complement C1s enzyme (P09871 16-437 partner limits assumed): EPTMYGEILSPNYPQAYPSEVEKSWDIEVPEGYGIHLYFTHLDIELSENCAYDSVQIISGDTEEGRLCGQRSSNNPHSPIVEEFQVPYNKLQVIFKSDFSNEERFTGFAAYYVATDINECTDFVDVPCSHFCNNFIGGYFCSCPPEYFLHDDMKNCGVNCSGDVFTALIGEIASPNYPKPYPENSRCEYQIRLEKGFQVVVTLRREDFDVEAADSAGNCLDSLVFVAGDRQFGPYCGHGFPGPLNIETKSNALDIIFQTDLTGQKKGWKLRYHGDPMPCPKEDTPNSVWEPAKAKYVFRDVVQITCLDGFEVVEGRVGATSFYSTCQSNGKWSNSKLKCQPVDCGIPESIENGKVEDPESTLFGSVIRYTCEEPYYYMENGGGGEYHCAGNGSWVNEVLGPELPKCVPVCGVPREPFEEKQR

pIC50 | Compound
> 7.00 | C[C@@H](NC(=O)[C@@H]1C[C@@H](OC(F)F)CN1C(=O)CNC(=O)c1ccc(Oc2ccc(F)cc2)cc1)c1cc(-c2ncc[nH]2)cs1 [Compound 86, (2S,4R)—N—((R)-1-(4-(1H-imidazol-2-yl)thiophen-2-yl)ethyl)-4-(difluoromethoxy)-1-((4-(4-fluorophenoxy)benzoyl)glycyl)pyrrolidine-2-carboxamide]
> 7.00 | C[C@@H](NC(=O)[C@@H]1CC2(CN1C(=O)CNC(=O)c1ccc3c(c1)-c1ccccc1C3(F)F)OCCO2)c1cc(C(=N)NO)cs1 [Compound 128, (S)-7-((9,9-difluoro-9H-fluorene-3-carbonyl)glycyl)-N—((R)-1-(4-(N-hydroxycarbamimidoyl)thiophen-2-yl)ethyl)-1,4-dioxa-7-azaspiro[4.4]nonane-8-carboxamide]
> 7.00 | C[C@@H](NC(=O)[C@@H]1C[C@]2(C)C[C@@H]2N1C(=O)CNC(=O)c1ccc(Oc2ccc(F)cc2)cc1)c1ccc(C(=N)N)s1 [Compound 67, (1S,3S,5S)—N—((R)-1-(5-carbamimidoylthiophen-2-yl)ethyl)-2-((4-(4-fluorophenoxy)benzoyl)glycyl)-5-methyl-2-azabicyclo[3.1.0]hexane-3-carboxamide]
> 7.00 | C[C@@H](NC(=O)[C@@H]1C[C@@H](S(C)(=O)=O)CN1C(=O)CNC(=O)c1ccc2c(c1)-c1ccccc1C2(F)F)c1cc(C(=N)N)cs1 [Compound 61, (2S,4R)—N—((R)-1-(4-carbamimidoylthiophen-2-yl)ethyl)-1-((9,9-difluoro-9H-fluorene-3-carbonyl)glycyl)-4-(methylsulfonyl)pyrrolidine-2-carboxamide]
> 7.00 | Cc1cc(C(=O)NCC(=O)N2[C@H]3C[C@@]3(C)C[C@H]2C(=O)N[C@H](C)c2cc(C(=N)N)cs2)ccc1Oc1ccc(F)cc1 [Compound 27, (1S,3S,5S)—N—((R)-1-(4-carbamimidoylthiophen-2-yl)ethyl)-2-((4-(4-fluorophenoxy)-3-methylbenzoyl)glycyl)-5-methyl-2-azabicyclo[3.1.0]hexane-3-carboxamide]
> 7.00 | C[C@@H](NC(=O)[C@@H]1CC2(CN1C(=O)CNC(=O)c1ccc3oc4ccccc4c3c1)OCCO2)c1cc(C(=N)N)cs1 [Compound 137, (S)—N—((R)-1-(4-carbamimidoylthiophen-2-yl)ethyl)-7-((dibenzo[b,d]furan-2-carbonyl)glycyl)-1,4-dioxa-7-azaspiro[4.4]nonane-8-carboxamide]
> 7.00 | COC[C@@]1(F)C[C@@H](C(=O)N[C@H](C)c2cc(C(=N)N)cs2)N(C(=O)CNC(=O)c2ccc(Oc3ccc(C)cc3)cc2)C1 [Compound 19, (2S,4R)—N—((R)-1-(4-carbamimidoylthiophen-2-yl)ethyl)-4-fluoro-4-(methoxymethyl)-1-((4-(p-tolyloxy)benzoyl)glycyl)pyrrolidine-2-carboxamide]
> 7.00 | C[C@@H](NC(=O)[C@@H]1CC2(CN1C(=O)CNC(=O)c1cccc(-c3ccccc3)c1)OCCO2)c1cc(C(=N)N)cs1 [Compound 109, (S)-7-(([1,1′-biphenyl]-3-carbonyl)glycyl)-N—((R)-1-(4-carbamimidoylthiophen-2-yl)ethyl)-1,4-dioxa-7-azaspiro[4.4]nonane-8-carboxamide]

Compound | pIC50
C[C@@H](NC(=O)[C@@H]1CC2(CN1C(=O)CNC(=O)c1ccc3c(c1)-c1ccc(Cl)cc1C3(F)F)OCCO2)c1cc(C(=N)N)cs1 [Compound 192, (8S)—N-[(1R)-1-(4-carbamimidoylthiophen-2-yl)ethyl]-7-{2-[(7-chloro-9,9-difluorofluoren-3-yl)formamido]acetyl}-1,4-dioxa-7-azaspiro[4.4]nonane-8-carboxamide] | > 7.00

Same assay, conditions: Human complement C1s enzyme 1.16 nM, substrate Z-L-Lys-SBzl 100 μM, assay of Example 3; read-out: IC50 (Stars)

pIC50 | Compound
> 7.00 | C[C@@H](NC(=O)[C@@H]1C[C@@H](S(C)(=O)=O)CN1C(=O)CNC(=O)c1ccc2c(c1)C(C)(C)c1ccccc1-2)c1cc(C(=N)N)cs1 [Compound 369, (2S,4R)—N—((R)-1-(4-carbamimidoylthiophen-2-yl)ethyl)-1-((9,9-dimethyl-9H-fluorene-2-carbonyl)glycyl)-4-(methylsulfonyl)pyrrolidine-2-carboxamide]
> 7.00 | C[C@@H](NC(=O)[C@@H]1C[C@](F)(COCCCCCC(=O)O)CN1C(=O)CNC(=O)c1ccc2c(c1)-c1ccccc1C2(F)F)c1cc(C(=N)N)cs1 [Compound 201, 6-(((3R,5S)-5-(((R)-1-(4-carbamimidoylthiophen-2-yl)ethyl)carbamoyl)-1-((9,9-difluoro-9H-fluorene-3-carbonyl)glycyl)-3-fluoropyrrolidin-3-yl)methoxy)hexanoic acid]
> 7.00 | C[C@@H](NC(=O)[C@@H]1C[C@@H](OC(F)F)CN1C(=O)CNC(=O)c1ccc2[nH]c3ccccc3c2c1)c1cc(C(=N)N)cs1 [Compound 326, N-(2-((2S,4R)-2-(((R)-1-(4-carbamimidoylthiophen-2-yl)ethyl)carbamoyl)-4-(difluoromethoxy)pyrrolidin-1-yl)-2-oxoethyl)-9H-carbazole-3-carboxamide]
> 7.00 | N=C(N)c1csc(CNC(=O)[C@@H]2CC3(CN2C(=O)CNC(=O)c2ccc(-c4ccc(F)cc4C(=O)O)cc2)OCCO3)c1 [Compound 227, (S)-4′-((2-(8-(((4-carbamimidoylthiophen-2-yl)methyl)carbamoyl)-1,4-dioxa-7-azaspiro[4.4]nonan-7-yl)-2-oxoethyl)carbamoyl)-4-fluoro-[1,1′-biphenyl]-2-carboxylic acid]
> 7.00 | C[C@H](NC(=O)c1ccc(-c2ccc(F)cc2F)cc1)C(=O)N1CC2(C[C@H]1C(=O)NCc1cc(C(=N)N)cs1)OCCO2 [Compound 291, (S)—N-((4-carbamimidoylthiophen-2-yl)methyl)-7-((2′,4′-difluoro-[1,1′-biphenyl]-4-carbonyl)-L-alanyl)-1,4-dioxa-7-azaspiro[4.4]nonane-8-carboxamide]
> 7.00 | CCS(=O)(=O)[C@@H]1C[C@@H](C(=O)N[C@H](C)c2cc(C(=N)N)cs2)N(C(=O)CNC(=O)c2ccc3c(c2)-c2ccccc2C3(F)F)C1 [Compound 238, (2S,4R)—N—((R)-1-(4-carbamimidoylthiophen-2-yl)ethyl)-1-((9,9-difluoro-9H-fluorene-3-carbonyl)glycyl)-4-(ethylsulfonyl)pyrrolidine-2-carboxamide]
> 7.00 | C[C@@H](NC(=O)[C@@H]1C[C@@H](OC(F)F)CN1C(=O)CNC(=O)c1ccc2c(c1)Oc1ccccc1S2)c1cc(C(=N)N)cs1 [Compound 328, (2S,4R)—N—((R)-1-(4-carbamimidoylthiophen-2-yl)ethyl)-4-(difluoromethoxy)-1-((phenoxathiine-3-carbonyl)glycyl)pyrrolidine-2-carboxamide]
> 7.00 | C[C@@H](NC(=O)[C@@H]1C[C@@H](F)CN1C(=O)CNC(=O)c1ccc2c(c1)-c1ccccc1C2(F)F)c1cc(C(=N)N)cs1 [Compound 202, (2S,4R)—N—((R)-1-(4-carbamimidoylthiophen-2-yl)ethyl)-1-((9,9-difluoro-9H-fluorene-3-carbonyl)glycyl)-4-fluoropyrrolidine-2-carboxamide]
> 7.00 | C[C@@H](NC(=O)[C@@H]1C[C@]2(Cn3ccnn3)C[C@@H]2N1C(=O)CNC(=O)c1ccc2c(c1)-c1ccccc1C2(F)F)c1cc(C(=N)N)cs1 [Compound 274, (1S,3S,5S)-5-((1H-1,2,3-triazol-1-yl)methyl)-N—((R)-1-(4-carbamimidoylthiophen-2-yl)ethyl)-2-((9,9-difluoro-9H-fluorene-3-carbonyl)glycyl)-2-azabicyclo[3.1.0]hexane-3-carboxamide]
> 7.00 | C[C@@H](NC(=O)[C@@H]1C[C@@H](Oc2ccccc2)CN1C(=O)CNC(=O)c1ccc2oc3ccccc3c2c1)c1cc(C(=N)N)cs1 [Compound 248, (2S,4R)—N—((R)-1-(4-carbamimidoylthiophen-2-yl)ethyl)-1-((dibenzo[b,d]furan-2-carbonyl)glycyl)-4-phenoxypyrrolidine-2-carboxamide]
> 7.00 | COC[C@@]1(F)C[C@@H](C(=O)N[C@H](C)c2cc(C(=N)N)cs2)N(C(=O)CNC(=O)c2ccc3c(c2)-c2ccccc2S3(=O)=O)C1 [Compound 393, (2S,4R)—N—((R)-1-(4-carbamimidoylthiophen-2-yl)ethyl)-1-((5,5-dioxidodibenzo[b,d]thiophene-2-carbonyl)glycyl)-4-fluoro-4-(methoxymethyl) pyrrolidine-2-carboxamide]
> 7.00 | C[C@@H](NC(=O)[C@@H]1C[C@@H](S(C)(=O)=O)CN1C(=O)CNC(=O)c1ccc2c(c1)Oc1ccccc1S2)c1cc(C(=N)N)cs1 [Compound 333, (2S,4R)—N—((R)-1-(4-carbamimidoylthiophen-2-yl)ethyl)-4-(methylsulfonyl)-1-((phenoxathiine-3-carbonyl)glycyl)pyrrolidine-2-carboxamide]

Same assay, conditions: Human complement C1s enzyme 1.16 nM, substrate Z-L-Lys-SBzl; assay of Example 3; read-out: IC50 (Stars)

pIC50 | Compound
> 7.00 | Cc1ccc(-c2cccc(C(=O)NCC(=O)N3C[C@H](S(C)(=O)=O)C[C@H]3C(=O)N[C@H](CO)c3cc(C(=N)N)cs3)c2)cc1 [Compound 404, (2S,4R)—N—((R)-1-(4-carbamimidoylthiophen-2-yl)-2-hydroxyethyl)-1-((4′-methyl-[1,1′-biphenyl]-3-carbonyl)glycyl)-4-(methylsulfonyl) pyrrolidine-2-carboxamide]
> 7.00 | N=C(N)c1csc([C@@H](CO)NC(=O)[C@@H]2C[C@](F)(CF)CN2C(=O)CNC(=O)c2ccc3c(c2)-c2ccccc2C3(F)F)c1 [Compound 398, (2S,4R)—N—((R)-1-(4-carbamimidoylthiophen-2-yl)-2-hydroxyethyl)-1-((9,9-difluoro-9H-fluorene-3-carbonyl)glycyl)-4-fluoro-4-(fluoromethyl)pyrrolidine-2-carboxamide]
> 7.00 | CC1c2ccccc2-c2cc(C(=O)NCC(=O)N3C[C@H](S(C)(=O)=O)C[C@H]3C(=O)N[C@H](C)c3cc(C(=N)N)cs3)ccc21 (stereo partly drawn) [Compound 419, (2S,4R)—N—((R)-1-(4-carbamimidoylthiophen-2-yl)ethyl)-1-((9-methyl-9H-fluorene-3-carbonyl)glycyl)-4-(methylsulfonyl)pyrrolidine-2-carboxamide]
